Assay results from patent US12582616B2, “Molecular targets for modulation of dissociative and associative states” (The Board of Trustees of the Leland Stanford Junior …, priority 2020, dated 2026).
“Also recorded” adds a separate entry of the source.

Legend:
[1] = test system: retrosplenial cortex (RSP); assay: Two-photon imaging of retrosplenial cortex; assay type: in vivo, mouse
Description: Mice were anesthetized with isoflurane and the skull above retrosplenial cortex was removed and replaced with a 7 mm circular glass coverslip. For layer 1 experiments, Thy1GcaMP6s mice were used. For layer 2/3 experiments, Cux2-CreER; Ai148 mice were used (tamoxifen dissolved in corn oil was injected intraperitoneally at 0.1 mg/g at least 2 weeks prior to imaging). For layer 5 experiments, Rbp4-Cre mice were injected locally in retrosplenial with 800 nL AAVdj-Ef1a-DIO-GCaMP6f (titer 5E12) at stereotactic coordinates (−3AP, 0.5ML, −0.6DV). Mice were given >=1 week to recover before imaging. Awake, head-fixed imaging was performed on a standard two photon microscope (NeuroLabWare, Los Angeles, CA). A 16x 0.8 NA Nikon objective was immersed in clear ultrasound gel for imaging (Aquasonic, Parker Laboratories); frame rate of 30 Hz. Although we observed oscillations in RSP with 50 mg/kg, we were concerned that 50 mg/kg may be too low a dose to sensitively detect a potentially weaker signal in visual cortex or layer 2/3, and so we used 80 mg/kg in these experiments.
Two-photon tiff stack videos were registered to the average image using the TurboReg ImageJ plug-in using rigid body transformations. […] Contaminating neuropil signal was estimated from an annulus surrounding each soma mask and removed using the function F(t)=Fsoma(t)-0.3*Fneuropil(t), where Fsoma(t) is the somatic DF/F and Fneuropil(t) is the DF/F from an annulus 4 pixels wide surrounding each soma mask. The resulting traces were detrended and z-scored. The full frame fluorescence (used for quantifying layer 1 neuropil oscillations) was computed by summing all of the pixels in each frame on each time point, and then computing DF/F the same way, with no neuropil subtraction step.
Each trace (corresponding to either a fiber photometry signal, a cellular two-photon signal, a widefield regional centroid, a widefield pixel, an sEEG trace, or a smoothed spike rate Neuropixels trace) was z-scored, and the power spectral density (PSD) was then estimated using Welch's method (pwelch( ) in Matlab), with a window size of 10*fs (15*fs for human sEEG) where fs is the sampling rate of the signal. The average band power within a specified band (i.e. 1-3 Hz) was then computed by integrating the PSD estimate (bandpower in Matlab). For displaying the traces of individual cells, traces were each zscored by subtracting the mean value of the trace (across the whole recorded time window) and dividing by the standard deviation of the trace. Unless otherwise indicated, the PSD was computed across the time window from minutes 10 to 11 post-injection.

mice [2] = assay: Tail suspension test; assay type: in vivo, mouse
Description: Tail Suspension Test: Mouse activity was recorded using a 60 Hz web camera. Struggling activity was quantified for minutes 2-10. […] Illumination began 30 seconds before tails were secured with tape and suspended from the beam. Mice were excluded if they climbed on their own tails.

mice [3] = assay: Resident-intruder social interaction assay; assay type: in vivo, mouse; conditions: ketamine, both channel-knockouts vs wild-type
Description: Social Interaction Assay: Resident-intruder social interaction was recorded for two minutes. Interactions were defined as close physical proximity behaviors, including sniffing, touching, and following. […] Illumination began 30 seconds before the same-sex intruder mouse was introduced.

[4] = test system: retrosplenial cortex (RSP); assay: Retrosplenial gene disruption (HCN1, GRIN1) and fiber photometry; assay type: in vivo, mouse
Description: A 405 nm and 470 nm LED illumination (Thorlabs) was combined (425 nm longpass, Thorlabs DMLP425) and coupled into a fiber optic patch cord (400 μm diameter, 0.48 NA, Doric Lenses) using a longpass dichroic (505 nm, Thorlabs DMLP505) and a fixed-focused coupler/collimator with a standard FC connector (F240FC-A, NA 0.51, f=7.9 mm)^47,48. Each illumination channel was frequency modulated using the sync output from a lock-in amplifier (SR810 DSP, Stanford Research Systems).
Analysis was performed using custom MATLAB (MathWorks) scripts. Widefield imaging videos were registered to a 2D top-projection atlas generated from the annotated Allen Brain Atlas volume, version CCFv2, in MATLAB (MathWorks), using an affine transformation computed from four manually selected control points. Each video was DF/F normalized, using the median for each pixel over the entire time series as F. The 410 nm channel was then temporally smoothed using a moving average (width=400 ms). The smoothed 410 nm DF/F signal for each pixel was regressed onto the 488 nm DF/F signal for the corresponding pixel, and the regression coefficients were used to scale the 410 nm channel to the 488 nm channel. This scaled 410 nm DF/F signal was then subtracted from the 488 nm DF/F signal to produce a normalized signal for each pixel. For quantification, activity traces were extracted from points centered in five cortical regions (visual, somatosensory, parietal, motor, retrosplenial) on the left hemisphere of the brain. The video data was Gaussian smoothed spatially (radius=2 pixels). Similarly, for fiber photometry recordings, the 410 nm signal was regressed onto the 488 nm signal, the 410 nm signal was scaled by the regression coefficients, and then subtracted from the 488 nm signal.
Stereotaxic Surgery: Adult male and female HCN1^f/f, NR1^f/f, or wildtype C57/BI6 were injected bilaterally in two retrosplenial locations (AP −3.1 and −3.4, ML+/−0.5, DV −0.5) with 1 uL of AAV8-Ef1 a-mCherry-IRES-Cre (titer 5E11) and AAVdj-Ef1a-DIO-GCaMP6m (titer 1E13). A 400-micron optical fiber was implanted over one injection location. […]

mice [5] = assay: Observation for seizure-like behavior after dissociative doses; assay type: in vivo, mouse; conditions: dissociative doses of ketamine
Excerpt: One characteristic of seizures is increased synchrony. While the ketamine-induced rhythm involved increased synchrony in neuronal firing, the initiation, spread, maintenance/termination, and behavior were distinguishable from typical seizures.

mice [6] = assay: Hot plate test
Description: Hot Plate Test: Mice were placed on the hot plate (Bioseb), which was set to 55° C. and surrounded by a clear circular perimeter. Mouse activity was recorded using two cameras from different angles. The experiment ended when the mouse jumped to escape or 90 seconds had elapsed. Care was taken to clean and dry the hot plate apparatus between animals. For optogenetic experiments, mice were connected to patch cords and then returned to a holding cage. Illumination began 30 seconds before mice were placed on the hot plate.

[7] = test system: retrosplenial cortex (RSP); assay: Widefield imaging of cortical activity in GCaMP6s mice
Description: We recorded multiregional neuronal activity by leveraging widefield microscopy, a cleared skull preparation, and atlas registration in GCaMP6s-expressing mice (FIGS. 1A-1C)^6,8,15.
As described^8, mice were anesthetized with isoflurane, the scalp was removed, the skull cleaned and dried, and a custom head-plate was cemented to contacts over the cerebellum and in front of the olfactory bulb. The skull was then covered in a thin layer of cyanoacrylate glue (Apollo 2000, Cyberbond), clear dental acrylic (Ortho-Jet, Lang Dental), and clear nail polish (Electron Microscopy Services). […] (0.1 mg/kg) was injected subcutaneously for pain management. […] Imaging was performed on a custom-built fluorescence microscope designed for high light collection efficiency and large field of view. […] Alternating 410 nm and 488 nm illumination for non-Ca^2+ dependent artifact removal was controlled using a microcontroller (Arduino) slaved to the frame output trigger of the camera.
Each trace (corresponding to either a fiber photometry signal, a cellular two-photon signal, a widefield regional centroid, a widefield pixel, an sEEG trace, or a smoothed spike rate Neuropixels trace) was z-scored, and the power spectral density (PSD) was then estimated using Welch's method (pwelch( ) in Matlab), with a window size of 10*fs (15*fs for human sEEG) where fs is the sampling rate of the signal. The average band power within a specified band (i.e. 1-3 Hz) was then computed by integrating the PSD estimate (bandpower in Matlab). […] Unless otherwise indicated, the PSD was computed across the time window from minutes 10 to 11 post-injection.

[8] = test system: brain regions correlated with RSP; assay: Simultaneous recording from four Neuropixels probes with i.p. drug delivery
Description: Mice were anesthetized with isoflurane, carefully leveled in a stereotaxic apparatus and their scalp and periosteum were removed. A 3% hydrogen peroxide in saline solution was used to clean the surface of the skull. A custom stainless steel headbar was leveled on the skull and attached using clear dental cement. After the cement had dried, targeted probe entry sites were stereotaxically marked on the cement layer with a permanent marker (Day 1: “mPFC”, 2.3AP, 0.6ML; “somatosensory”, −0.7AP, −4.0ML; “retrosplenial”, −2AP, −1 ML; “subiculum”, −3.5AP, 2.14ML; Day 2: “OFC”: 2.5AP, 1.5ML; “mPFC”: 2.3AP, −0.6ML; “retrosplenial”, −2AP, 1ML; “thalamus”, −1.5AP, −1.7ML). In part, they were selected to cover areas with known connectivity to the retrosplenial cortex. A 2 mm long insulated platinum-iridium wire was implanted centrally over the cerebellum, with the last several hundred microns bared to serve as an electrical reference.
Mice were acclimated to head fixation and the recording rig over several days before recording. Several hours before recording, mice were anesthetized for approximately 30 minutes each while small 1 mm craniotomies were made over four pre-marked areas. Craniotomies were kept clean of bone fragments and made such that bleeding was minimized. The skull was covered with a pool of saline and with Quik-Cast to protect and keep moist craniotomies before recording. Mice recovered in their homecages before recording. Immediately prior to recording set up, mice were very briefly anesthetized with isoflurane and implanted with an IV catheter system (BD Saf-T-Intima Closed IV Catheter System: 22G×3/4′, containing an integrated Y adaptor and safety lock) to their intraperitoneal cavity and affixed with glue. […] While still anesthetized, mice were headfixed and tubing was secured stably to a custom mouse holder by tape. Quik-Cast was removed from the skull, and craniotomies were briefly cleaned before being submerged in a pool of saline. […] The four acquisitions were synchronized using a common squarewave signal recorded for all probes and aligned to the nearest pulse edge. […]

[9] = 50 mg/kg ketamine, control mice of knockout experiment

SMILES: CNC1(c2ccccc2Cl)CCCCC1=O (stereo not drawn) [ketamine]
- oscillation and population synchrony in layer 2/3 RSP neurons ([1]; Cux2-CreER mice, after ketamine): neither oscillating neurons nor population synchrony were observed
- synchronous activity in layer 5 RSP neurons ([1]; Rbp4-Cre mice, after ketamine): exhibited synchronous activity
- spread of ketamine-rhythm across layers and regions ([1]; Supplementary Note 2): did not spread beyond layer 5 neurons in retrosplenial cortex
- oscillation in superficial neuropil, RSP vs neighboring visual cortex ([1]; two-photon, cranial window, 80 mg/kg): observed the oscillation in RSP but not neighboring visual cortex
- tail-suspension escape responses (mice [2]; ketamine >=25 mg/kg): similarly suppressed tail-suspension escape responses
- tail suspension-escape behavior (mice [2]; ketamine, both channel-knockouts vs wild-type): modestly-recovered tail suspension-escape behavior
- resident-intruder social interactions (mice [3]): modestly-recovered
- ketamine-induced RSP oscillation ([4]; local GRIN1 (NMDAR) knockout in RSP): significantly diminished; also recorded: partially attenuated; also recorded: Reduced ketamine-induced oscillation-power
- ketamine-induced RSP oscillation ([4]; local HCN1 knockout in RSP): significantly diminished; also recorded: selectively abolished both the ketamine-induced rhythm and dissociation-like behavioral effects; also recorded: no longer induced the deep retrosplenial rhythm; also recorded: Reduced ketamine-induced oscillation-power
- ketamine-induced RSP oscillation ([4]; wild-type): preserved in wild-type
- seizure-like signs (rigidity, convulsive movements, absence-like states, salivation/rearing/falling) (mice [5]): no rigidity, convulsive movements, absence-like states, or salivation/rearing/falling were observed
- affective paw-licking, hot plate (mice [6]; 50 mg/kg ketamine, RSP Cre-virus in HCN1-KO mice): strikingly restored affective paw-licking
- affective paw-licking, hot plate (mice [6]; [9]): abolished affective paw-licking
- reflexive paw-flicks, hot plate (mice [6]; [9]): preserving reflexive paw-flicks
- affective/emotional defensive behavior (paw-lick), hot plate (mice [6]; ketamine 25 and 50 mg/kg): abolished affective/emotional
- motivational defensive behavior (jump-to-escape), hot plate (mice [6]; ketamine 25 and 50 mg/kg): abolished
- reflexive responses (paw-flick), hot plate (mice [6]; ketamine dose series up to 50 mg/kg): did not reduce reflexive responses
- affective behavior (mice [6]; ketamine, GRIN1 knockouts): without recovery of affective behavior
- dissociation-like behavioral effects (mice [6]; ketamine, HCN1 channels removed from retrosplenial cortex): selectively abolished both the ketamine-induced rhythm and dissociation-like behavioral effects; also recorded: did not fully elicit the dissociation-like behavioral effects
- magnitude of RSP rhythm on repeated days ([7]; five consecutive days): exhibited similar magnitude across five consecutive days
- 1-3 Hz oscillation localized to retrosplenial cortex (RSP), widefield imaging ([7]; i.p. injection, ketamine 50 mg/kg): a 1-3 Hz oscillation emerged in retrosplenial cortex (RSP), but not in any other cortical region
- correlations of brain regions with RSP ([8]; 8-12 min after 50 mg/kg ketamine i.p.): correlations with RSP were reduced
- correlation of laterodorsal and anteroventral thalamus with each other and RSP ([8]; subanesthetic ketamine): became more-strongly correlated to each other and RSP
- rhythmicity of specific subcortical regions ([8]; subanesthetic ketamine): exhibiting increased rhythmicity
